# Measured values as given in patent US20260297070A1, “CYCLIC [COMPOUND LEFT OUT] WRN INHIBITORS” (Nimbus Wadjet, Inc., priority 2023, published 2026).
# Biological target: T1, human Werner helicase (WRN-BV08, Uniprot Q14191, amino acids 517-1235 with L1074F point mutation) (Homo sapiens, UniProt Q14191, L1074F)
# T1 construct: Uniprot Q14191, amino acids 517-1235 with L1074F point mutation; TEV-cleavable 8×His (C, cleaved yes); made in house; host or cells: Sf9 insect cells (baculovirus)
# Test: WRN (BV08) ADP-Glo Assay
# Format: biochemical
# Conditions: 0.15 nM WRN, 5 μM ATP, 0.1 nM DNA duplex, 15 min preincubation, 60 min at 25° C., pH 7.5, 1% DMSO; read-out: ADP-Glo_hWRN_IC50
# Summary of the method: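 ADP-Glo luminescence read-out of ATP hydrolysis. Conditions: 0.15 nM WRN, 5 μM ATP, 0.1 nM DNA duplex, 1% DMSO, 60 min at 25 °C after 15 min compound preincubation. Max/min controls were DMSO and 20 μM NSC-617145; IC50 from four-parameter fit.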
# T1 sequence (Q14191 with tags, fused parts or gaps L1074F limits assumed): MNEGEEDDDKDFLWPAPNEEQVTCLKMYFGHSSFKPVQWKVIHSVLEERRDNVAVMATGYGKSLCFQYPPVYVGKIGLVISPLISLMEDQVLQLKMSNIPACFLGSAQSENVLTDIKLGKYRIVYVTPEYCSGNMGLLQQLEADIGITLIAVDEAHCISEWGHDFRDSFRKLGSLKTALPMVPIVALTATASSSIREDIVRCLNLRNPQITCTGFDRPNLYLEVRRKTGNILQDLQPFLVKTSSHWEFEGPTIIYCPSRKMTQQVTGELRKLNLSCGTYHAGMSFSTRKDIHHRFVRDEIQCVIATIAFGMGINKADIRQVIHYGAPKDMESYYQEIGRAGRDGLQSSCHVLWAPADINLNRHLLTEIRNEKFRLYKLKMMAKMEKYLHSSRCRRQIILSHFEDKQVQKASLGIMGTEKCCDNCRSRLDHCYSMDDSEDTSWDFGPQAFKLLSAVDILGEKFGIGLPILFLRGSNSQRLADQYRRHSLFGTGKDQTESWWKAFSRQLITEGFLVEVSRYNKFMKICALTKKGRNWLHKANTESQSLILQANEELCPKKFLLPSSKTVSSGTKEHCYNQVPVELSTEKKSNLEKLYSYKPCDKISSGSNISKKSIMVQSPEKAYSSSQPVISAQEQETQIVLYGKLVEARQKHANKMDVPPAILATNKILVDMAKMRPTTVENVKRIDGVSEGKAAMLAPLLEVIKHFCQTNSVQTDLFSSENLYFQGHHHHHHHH
row,IC50 [µM],Compound
1,< 0.5,"COC(C(=O)N(Cc1nc(C2CC2)cs1)C1C=CS(=O)(=O)C1)c1ccc(S(F)(F)(F)(F)F)cc1 (stereo not shown) [I-74, N-[(4-cyclopropyl-1,3-thiazol-2-yl)methyl]-N-(1,1-dioxo-2,3-dihydro-1lambda6-thiophen-3-yl)-2-methoxy-2-[4-(pentafluoro-lambda6-sulfanyl)phenyl]acetamide]"
2,0.5 to 5,"Cc1cccn1-c1ccc(CC(=O)N(Cc2ccnc(C3(O)CC3)c2)C2C=CS(=O)(=O)C2)c(F)c1 (stereo not shown) [I-90, N-(1,1-dioxo-2,3-dihydro-1lambda6-thiophen-3-yl)-2-[2-fluoro-4-(2-methyl-1H-pyrrol-1-yl)phenyl]-N-{[2-(1-hydroxycyclopropyl)pyridin-4-yl]methyl}acetamide]"
3,< 0.5,"CC(C)(O)c1cc(CN(C(=O)C(OC(F)F)c2ccc(-c3ccc(F)c(F)c3)cc2F)[C@@H]2C=CS(=O)(=O)C2)ccn1 (single isomer, unassigned) [I-632]"
4,< 0.5,"COc1cc([C@H](C)N(C(=O)Cn2cc(-c3cc(F)c(F)c(F)c3)cn2)[C@@H]2C=CS(=O)(=O)C2)ccn1 [I-829, N-[(3R)-1,1-dioxo-2,3-dihydro-1lambda6-thiophen-3-yl]-N-[(1S)-1-(2-methoxypyridin-4-yl)ethyl]-2-[4-(3,4,5-trifluorophenyl)-1H-pyrazol-1-yl]acetamide]"
5,0.5 to 5,"COc1cc(CN(C(=O)C2Cc3cc(-n4cccc4)ccc32)C2C=CS(=O)(=O)C2)ccn1 (stereo not shown) [I-93, N-(1,1-dioxo-2,3-dihydro-1lambda6-thiophen-3-yl)-N-[(2-methoxypyridin-4-yl)methyl]-3-(1H-pyrrol-1-yl)bicyclo[4.2.0]octa-1,3,5-triene-7-carboxamide]"
6,< 0.5,"COc1cc(CN(C(=O)C(c2ccc(-c3ccc(F)c(F)c3)cc2F)n2cccn2)[C@@H]2C=CS(=O)(=O)C2)ccn1 (stereo partly drawn) [I-683, N-[(3R)-1,1-dioxo-2,3-dihydro-1lambda6-thiophen-3-yl]-N-[(2-methoxypyridin-4-yl)methyl]-2-(1H-pyrazol-1-yl)-2-{3,3′,4′-trifluoro-[1,1′-biphenyl]-4-yl}acetamide]"
7,< 0.5,"COc1cc(CN(C(=O)Cn2ccc(-c3ccc(F)cc3)cc2=O)[C@@H]2C=CS(=O)(=O)C2)ccn1 [I-660, N-[(3R)-1,1-dioxo-2,3-dihydro-1lambda6-thiophen-3-yl]-2-[4-(4-fluorophenyl)-2-oxo-1,2-dihydropyridin-1-yl]-N-[(2-methoxypyridin-4-yl)methyl]acetamide]"
8,5 to 10,"COc1cc(CN(C(=O)C(OCC2COC2)c2ccc(-c3ccc(F)c(F)c3)cc2F)[C@@H]2C=CS(=O)(=O)C2)ccn1 (stereo partly drawn) [I-807, N-[(3R)-1,1-dioxo-2,3-dihydro-1lambda6-thiophen-3-yl]-N-[(2-methoxypyridin-4-yl)methyl]-2-[(oxetan-3-yl)methoxy]-2-{3,3′,4′-trifluoro-[1,1′-biphenyl]-4-yl}acetamide]"
9,0.5 to 5,"CCc1cccn1-c1ccc(CC(=O)N(Cc2ccnc(OC)c2)C2C=CS(=O)(=O)C2)c(F)c1 (stereo not shown) [I-204, N-(1,1-dioxo-2,3-dihydro-1lambda6-thiophen-3-yl)-2-[4-(2-ethyl-1H-pyrrol-1-yl)-2-fluorophenyl]-N-[(2-methoxypyridin-4-yl)methyl]acetamide]"
10,> 50,"Cc1cccc(-c2nc(CC(=O)N(Cc3ccncc3)C3C=CS(=O)(=O)C3)cs2)c1 (stereo not shown) [I-333, N-(1,1-dioxo-2,3-dihydro-1lambda6-thiophen-3-yl)-2-[2-(3-methylphenyl)-1,3-thiazol-4-yl]-N-[(pyridin-4-yl)methyl]acetamide]"
11,> 50,"O=C(Cc1ccc(-n2cccc2)cc1)N(Cc1ccccc1)C1C=C(CO)S(=O)(=O)C1 (stereo not shown) [I-373, N-benzyl-N-[5-(hydroxymethyl)-1,1-dioxo-2,3-dihydro-1lambda6-thiophen-3-yl]-2-[4-(1H-pyrrol-1-yl)phenyl]acetamide]"
12,0.5 to 5,"COc1cc(CN(C(=O)C(OC)c2ccc(-c3ccc(F)cc3)cc2)C2C=CS(=O)(=O)C2)ccn1 (stereo not shown) [I-86, N-(1,1-dioxo-2,3-dihydro-1lambda6-thiophen-3-yl)-2-{4′-fluoro-[1,1′-biphenyl]-4-yl}-2-methoxy-N-[(2-methoxypyridin-4-yl)methyl]acetamide]"
13,< 0.5,"O=C(Cn1cc(-c2ccc(F)c(F)c2)cn1)N(Cc1nc([C@@H]2C[C@H]2F)cs1)C1C=CS(=O)(=O)C1 (stereo partly drawn) [I-723, 2-[4-(3,4-difluorophenyl)-1H-pyrazol-1-yl]-N-(1,1-dioxo-2,3-dihydro-1lambda6-thiophen-3-yl)-N-({4-[(1S,2R)-2-fluorocyclopropyl]-1,3-thiazol-2-yl}methyl)acetamide]"
14,10 to 50,"CC(C)(O)c1cc(CN(C(=O)Cc2ccc(-c3ccc(F)c(F)c3)cc2F)C2C=CS(=O)(=O)C2)ccn1 (single isomer, unassigned) [I-332]"
15,0.5 to 5,"COc1cc(CN(C(=O)Cc2c(F)cc(-c3ccc(F)cc3)cc2F)C2C=CS(=O)(=O)C2)ccn1 (stereo not shown) [I-168, N-(1,1-dioxo-2,3-dihydro-1lambda6-thiophen-3-yl)-N-[(2-methoxypyridin-4-yl)methyl]-2-{3,4′,5-trifluoro-[1,1′-biphenyl]-4-yl}acetamide]"
16,< 0.5,"COc1cc(CN(C(=O)Cn2cc(-c3cc(F)c(F)c(F)c3)cn2)[C@@H]2C=CS(=O)(=O)C2)ccn1 [I-764, N-[(3R)-1,1-dioxo-2,3-dihydro-1lambda6-thiophen-3-yl]-N-[(2-methoxypyridin-4-yl)methyl]-2-[4-(3,4,5-trifluorophenyl)-1H-pyrazol-1-yl]acetamide]"
17,> 50,"COc1cc(CN(C(=O)Cc2ccc(-c3ccc(F)c(F)c3)cc2F)C2C=CS(=O)(=O)C2)ccn1 (single isomer, unassigned) [I-400]"
18,10 to 50,"CS(=O)(=O)Nc1cccc(CN(C(=O)Cc2ccc(-n3cccc3)cc2)C2C=CS(=O)(=O)C2)c1 (stereo not shown) [I-344, N-(1,1-dioxo-2,3-dihydro-1lambda6-thiophen-3-yl)-N-[(3-methanesulfonamidophenyl)methyl]-2-[4-(1H-pyrrol-1-yl)phenyl]acetamide]"
19,> 50,"COc1cc(CN(C(=O)Cc2cnn(-c3ccc(Cl)cc3)c2)C2C=CS(=O)(=O)C2)ccn1 (stereo not shown) [I-379, 2-[1-(4-chlorophenyl)-1H-pyrazol-4-yl]-N-(1,1-dioxo-2,3-dihydro-1lambda6-thiophen-3-yl)-N-[(2-methoxypyridin-4-yl)methyl]acetamide]"
20,> 50,"O=C(Cc1nc(C2CCCC2)cs1)N(Cc1ccncc1)C1C=CS(=O)(=O)C1 (stereo not shown) [I-440, 2-(4-cyclopentyl-1,3-thiazol-2-yl)-N-(1,1-dioxo-2,3-dihydro-1lambda6-thiophen-3-yl)-N-[(pyridin-4-yl)methyl]acetamide]"
21,< 0.5,"O=C(Cn1cc(-c2cc(F)c(F)c(F)c2)cn1)N(Cc1cc(C2CC2)ns1)C1C=CS(=O)(=O)C1 (stereo not shown) [I-824, N-[(3-cyclopropyl-1,2-thiazol-5-yl)methyl]-N-(1,1-dioxo-2,3-dihydro-1lambda6-thiophen-3-yl)-2-[4-(3,4,5-trifluorophenyl)-1H-pyrazol-1-yl]acetamide]"
22,> 50,"O=C(C1CCC2(CCC2)CO1)N(Cc1ccncc1)C1C=CS(=O)(=O)C1 (stereo not shown) [I-654, N-(1,1-dioxo-2,3-dihydro-1lambda6-thiophen-3-yl)-N-[(pyridin-4-yl)methyl]-6-oxaspiro[3.5]nonane-7-carboxamide]"
23,10 to 50,"CC(C)Oc1ccc(CC(=O)N(Cc2ccncc2)C2C=CS(=O)(=O)C2)cc1 (stereo not shown) [I-365, N-(1,1-dioxo-2,3-dihydro-1lambda6-thiophen-3-yl)-2-[4-(propan-2-yloxy)phenyl]-N-[(pyridin-4-yl)methyl]acetamide]"
24,< 0.5,"CN(C)C(=O)C(C(=O)N(Cc1ccnc(C(C)(C)O)c1)C1C=CS(=O)(=O)C1)c1ccc(-c2ccc(F)cc2)cc1 (single isomer, unassigned) [I-8, N1-(-1,1-dioxido-2,3-dihydrothiophen-3-yl)-2-(4′-fluoro-[1,1′-biphenyl]-4-yl)-N1-((2-(2-hydroxypropan-2-yl)pyridin-4-yl)methyl)-N3,N3-dimethylmalonamide]"
25,5 to 10,"CCC(C)c1ccc(CC(=O)N(Cc2ccncc2)C2C=CS(=O)(=O)C2)cc1 (stereo not shown) [I-216, 2-[4-(butan-2-yl)phenyl]-N-(1,1-dioxo-2,3-dihydro-1lambda6-thiophen-3-yl)-N-[(pyridin-4-yl)methyl]acetamide]"
26,0.5 to 5,"COc1cc(CN(C(=O)C(c2ccc(-c3ccc(F)c(F)c3)cc2F)n2nccc2C)[C@@H]2C=CS(=O)(=O)C2)ccn1 (single isomer, unassigned) [I-749, (2R*)-N-[(3R)-1,1-dioxo-2,3-dihydro-1lambda6-thiophen-3-yl]-N-[(2-methoxypyridin-4-yl)methyl]-2-(5-methyl-1H-pyrazol-1-yl)-2-{3,3′,4′-trifluoro-[1,1′-biphenyl]-4-yl}acetamide]"
27,> 50,"COc1cccc(-c2ccc(CC(=O)N(Cc3ccncc3)C3C=CS(=O)(=O)C3)cc2)c1 (stereo not shown) [I-556, N-(1,1-dioxo-2,3-dihydro-1lambda6-thiophen-3-yl)-2-{3′-methoxy-[1,1′-biphenyl]-4-yl}-N-[(pyridin-4-yl)methyl]acetamide]"
28,> 50,"O=C([C@@H]1[C@H]2C[C@]1(c1cccc(F)c1)CO2)N(Cc1ccncc1)C1C=CS(=O)(=O)C1 (mixture of isomers) [I-715, rac-(1R,4S,5S)-N-(1,1-dioxo-2,3-dihydro-1lambda6-thiophen-3-yl)-4-(3-fluorophenyl)-N-[(pyridin-4-yl)methyl]-2-oxabicyclo[2.1.1]hexane-5-carboxamide]"
